These results are taken from article PMC3530961 (Journal of Medicinal Chemistry, 2012).

Data set [1] is described as follows: plasma protein binding by equilibrium dialysis. It is filed as in vitro ADME, mouse. The note with it: for plasma protein binding (% bound): female CD1 mouse plasma, equilibrium dialysis 5 h, 37 °C. (In equilibrium dialysis only unbound substance equilibrates across the membrane.)
The subject of data set [2] is P. falciparum 3D7. Description: growth inhibition of P. falciparum, SYBR green assay. It is filed as cell-based, Plasmodium falciparum.
Data set [3] in a line: intrinsic clearance. In kind it is in vitro ADME, mouse. The following applies: for microsomal stability (CLi): female CD1 mouse liver microsomes, 0.5 µM compound; for microsomal stability / in vitro DMPK properties, in words: hepatic microsomes.
The target in data set [4] is T1, recombinant PfTMPK (Plasmodium falciparum, UniProt Q8I4S1).
T1 sequence (Q8I4S1 1-210): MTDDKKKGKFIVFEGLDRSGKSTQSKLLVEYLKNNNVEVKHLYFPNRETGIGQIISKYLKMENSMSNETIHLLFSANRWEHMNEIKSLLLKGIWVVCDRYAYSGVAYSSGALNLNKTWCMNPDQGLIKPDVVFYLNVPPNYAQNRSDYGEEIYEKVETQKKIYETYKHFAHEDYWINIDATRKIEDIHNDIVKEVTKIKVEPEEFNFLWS
Put plainly: PfTMPK inhibition, coupled assay with pyruvate kinase and lactate dehydrogenase. In kind it is biochemical.

The target in data set [5] is T1, recombinant PfTMPK. The note with it: read-out: Km of PfTMPK for TMP; substrate constant; cited from earlier work.

For the compound `Cc1cn([C@@H]2C[C@H](O)[C@@H](CNC(=O)Nc3ccc(N4CCCCC4)cc3)O2)c(=O)[nH]c1=O` [Compound 63], in data set [1], the “unbound fraction in plasma, in words” value is given as “particularly large unbound fraction” and the “plasma protein binding (% bound)” value came out at 52.3 % bound. The “activity against the parasite, in words” value in data set [2] is given as “sub-micromolar activity”. In data set [3], the “microsomal stability (CLi)” value is 0.5 mL/min/g and the “microsomal stability / in vitro DMPK properties, in words” value was “good in vitro DMPK properties”.
`Cc1cn([C@@H]2C[C@H](O)[C@@H](CNC(=O)Nc3ccc(OCc4ccccc4)cc3)O2)c(=O)[nH]c1=O` [Compound 60]: the “plasma protein binding (% bound)” value in data set [1] came out at 81.2 % bound. Further, in data set [2], the “activity against the parasite, in words” value is reported as “sub-micromolar activity”. For the same compound, in data set [3], the “microsomal stability (CLi)” value is given as 3 mL/min/g and the “microsomal stability / in vitro DMPK properties, in words” value is reported as “good in vitro DMPK properties”.
For the compound `Cc1cn([C@@H]2C[C@H](O)[C@@H](CNC(=O)c3ccc4ccccc4c3)O2)c(=O)[nH]c1=O` [Compound 11], the “inhibitory activity against PfTMPK, in words” value (“inhibitory activity” for short) in data set [4] is “no or very low inhibitory activity”.
For the compound `Cc1cn([C@@H]2C[C@H](O)[C@@H](CNS(=O)(=O)c3ccc4ccccc4c3)O2)c(=O)[nH]c1=O` [Compound 10], the “inhibitory activity” value in data set [4] is recorded as “no or very low inhibitory activity”.
For the compound `Cc1cn([C@@H]2C[C@H](O)[C@@H](CNC(=O)Nc3ccc(OCc4ccc(Cl)cc4)cc3)O2)c(=O)[nH]c1=O` [Compound 86, N-(5′-Deoxy-α-thymidin-5′-yl)-N′-(4-(4-chlorobenzyloxy)phenyl)urea], the “activity against the parasite, in words” value in data set [2] is “sub-micromolar activity”.
As for `Cc1cn([C@H]2C[C@H](O)[C@@H](CNS(=O)(=O)c3ccc4ccccc4c3)O2)c(=O)[nH]c1=O` [Compound 35], in data set [4], the “inhibitory activity” value is given as “no or very low inhibitory activity”.
As to `Cc1cn([C@H]2C[C@H](O)[C@@H](CNC(=O)c3ccc4ccccc4c3)O2)c(=O)[nH]c1=O` [Compound 36], the “inhibitory activity” value in data set [4] is given as “no or very low inhibitory activity”.
Same read-out and setting: to `Cc1cn([C@@H]2C[C@H](O)[C@@H](CNC(=O)c3ccc([N+](=O)[O-])cc3)O2)c(=O)[nH]c1=O` [Compound 12] belongs “no or very low inhibitory activity”; to `Cc1cn([C@@H]2C[C@H](O)[C@@H](CNCc3ccc([N+](=O)[O-])cc3)O2)c(=O)[nH]c1=O` [Compound 13], “no or very low inhibitory activity”; to `Cc1cn([C@H]2C[C@H](O)[C@@H](CNS(=O)(=O)c3ccc([N+](=O)[O-])cc3)O2)c(=O)[nH]c1=O` [Compound 34], “no or very low inhibitory activity”.
With `Cc1cn([C@@H]2C[C@H](O)[C@@H](CNC(=O)Nc3ccc(-c4ccccc4)cc3)O2)c(=O)[nH]c1=O` [Compound 57], the “plasma protein binding (% bound)” value in data set [1] turned out to be 92.0 % bound. For the same compound, the “activity against the parasite, in words” value in data set [2] was “sub-micromolar activity”. In data set [3], the “microsomal stability (CLi)” value came out at 1.9 mL/min/g and the “microsomal stability / in vitro DMPK properties, in words” value is given as “good in vitro DMPK properties”.
`Cc1cn([C@H]2C[C@H](O)[C@@H](CNCc3ccc([N+](=O)[O-])cc3)O2)c(=O)[nH]c1=O` [Compound 38]: in data set [4], the “inhibitory activity” value is reported as “no or very low inhibitory activity”.
With `Cc1cn([C@@H]2C[C@H](O)[C@@H](CNC(=O)Nc3ccc(OCc4cccc(Cl)c4)cc3)O2)c(=O)[nH]c1=O` [Compound 85, N-(5′-Deoxy-α-thymidin-5′-yl)-N′-(4-(3-chlorobenzyloxy)phenyl)urea], in data set [2], the “activity against the parasite, in words” value was “sub-micromolar activity”.
`Cc1cn([C@@H]2C[C@H](O)[C@@H](CNS(=O)(=O)c3ccc([N+](=O)[O-])cc3)O2)c(=O)[nH]c1=O` [Compound 9]: the “inhibitory activity” value in data set [4] is given as “no or very low inhibitory activity”.
As for `Cc1cn([C@@H]2C[C@H](O)[C@@H](CNC(=O)Nc3ccc(OCc4ccccc4Cl)cc3)O2)c(=O)[nH]c1=O` [Compound 84, N-(5′-Deoxy-α-thymidin-5′-yl)-N′-(4-(2-chlorobenzyloxy)phenyl)urea], the “plasma protein binding (% bound)” value in data set [1] is given as 94.1 % bound. For the same compound, in data set [2], the “activity against the parasite, in words” value is given as “sub-micromolar activity”. Moreover, in data set [3], the “microsomal stability (CLi)” value is 6 mL/min/g and the “microsomal stability / in vitro DMPK properties, in words” value is recorded as “rapid turnover”.
Take `Cc1cn([C@H]2C[C@H](O)[C@@H](CNC(=O)c3ccc([N+](=O)[O-])cc3)O2)c(=O)[nH]c1=O` [Compound 37]: the “inhibitory activity” value in data set [4] is listed as “no or very low inhibitory activity”.
For the compound `COc1ccc(NC(=O)NC[C@H]2O[C@H](n3cc(C)c(=O)[nH]c3=O)C[C@@H]2O)cc1` [Compound 26], the “increase in potency against the parasite compared to compound 17” value in data set [2] (ratio of EC50 values versus starting compound 17) is reported as 10 fold.
`Cc1cn([C@H]2C[C@H](O)[C@@H](CNC(=O)Nc3ccc(OCc4ccccc4Cl)cc3)O2)c(=O)[nH]c1=O` [Compound 89]: in data set [2], the “activity against the parasite, in words” value is on record as “sub-micromolar activity” and the “drop in activity of β-derivative relative to α-derivative 84” value turned out to be 20 fold.
Take `COc1ccc(COc2ccc(NC(=O)NC[C@H]3O[C@H](n4cc(C)c(=O)[nH]c4=O)C[C@@H]3O)cc2)cc1` [Compound 87, N-(5′-Deoxy-α-thymidin-5′-yl)-N′-(4-(4-methyoxybenzyloxy)phenyl)urea]: in data set [2], the “activity against the parasite, in words” value was “sub-micromolar activity”.
In the case of `Cc1cn([C@H]2C[C@H](O)[C@@H](COP(=O)(O)O)O2)c(=O)[nH]c1=O` [TMP, thymidine monophosphate], the Km in data set [5] was 11 µM.
For the compound `Cc1cn([C@@H]2C[C@H](O)[C@@H](CNC(=O)Nc3ccc(Oc4ccccc4)cc3)O2)c(=O)[nH]c1=O` [Compound 66], the “plasma protein binding (% bound)” value in data set [1] worked out at 90.5 % bound. In data set [2], the “activity against the parasite, in words” value is “sub-micromolar activity”. Besides, in data set [3], the “microsomal stability (CLi)” value is 1.8 mL/min/g and the “microsomal stability / in vitro DMPK properties, in words” value is “good in vitro DMPK properties”.

In general, Km refers to the substrate concentration at which the rate is half of its maximum.
